From patent US20090170178A1, “Cell stimulating device and cell stimulating method” (priority 2003, published 2009)

Assays:
Format in all cases: cell-based, mouse
[1] = system: GABAA receptor β2 subunit mRNA in cultured granule cells; conditions: stimulation at 1.0 and 100 Hz; FIG. 9C; MK801 25 μM, CNQX 10 μM
[2] = system: NMDA receptor NR2C subunit mRNA in cultured granule cells
[3] = system: cultured granule cells (release of NRG); assay: Release of NRG into conditioned medium, read by CREB phosphorylation in granule cells; conditions: living cultured granule cells
Description: In the case of FIG. 6D, CREB phosphorylation following stimulation of each conditioned medium was confirmed using cerebellar granule cells. Serum-starved cerebellar granule cells were treated (for 5 to 10 minutes) with conditioned media that had been recovered from the culture products of pontine nuclei neurons and granule cells. The conditioned medium recovered from pontine nuclei neurons was used for stimulation in the cases of a, b, and c. In the cases of d, e, and f, a conditioned medium was prepared from the culture product of granule cells.
Stimulated granule cells were immobilized, followed by staining with a phospho-CREB antibody. The soluble forms that had been released after PMA stimulation (60 minutes) were concentrated and added to cultured granule cells. In panels c and f, the conditioned media should contain endogenous NRG and recombinant NRG. The difference between panels b and e indicates a function of NRG cleaved from recombinant mNRG. FIGS. 6E and 6F show the results of identification of an amino acid sequence that is necessary for proteolysis with the use of an ErbB and CREB phosphorylation assay system. The […] sequence was located above extracellular portions of transmembrane domains that were aligned in parallel. When the sequence was subjected to deletion or mutation of lysine to glycine, proteolysis efficiency was inhibited as shown in FIG. 6F. […]

SMILES | β2 transcription [1] | Increase of NR2C transcription/expression [2] | NR2C transcription / expression of NR2C mRNA ([2]; level increased at 1 and 100 Hz, FIG. 9C, MK801 25 μM) | Obvious release of NRG [3]
C[C@]12N[C@H](Cc3ccccc31)c1ccccc12 [MK801] | blocked | blocked NR2C elevation in a particularly strong manner | strongly blocked | –
[Cl-].[K+] [KC1] | – | – | – | not observed
N#Cc1cc2[nH]c(=O)c(=O)[nH]c2cc1[N+](=O)[O-] [CNQX] | blocked | – | – | –
